Experimental data reported in patent US20040006061A1, “Alkoxybenzylamine” (priority 2001, published 2004).

system: Escherichia coli NCTC 8196; experiment: Determination of the Minimum Inhibitory Concentration (MIC value) in microtitre plates, Escherichia coli; format: cell-based; details: Escherichia coli, NCTC8196, 48 h, Escherichia coli NCTC 8196; CASO broth, 48 hours at 37° C.; MIC = ≦20% growth (optical density at 620 nm); read-out: MIC [μg/ml] EC
Description: (§1) Determination of the Minimum Inhibitory Concentration (MIC Value) in Microtitre Plates
Casein-soybean flour-peptone broth for preparation of pre-cultures of test bacteria and yeast. […]
Escherichia coli NCTC 8196
(§2) The test substances are pre-dissolved in dimethyl sulfoxide (DMSO) and tested in a dilution series of 1:2.
(§3) The bacteria are cultured overnight in CASO broth and washed off using 10 ml of 0.85% sodium chloride solution (+0.1% Triton X-100).
(§4) All the test organisms are adjusted to an organism count of 1-5×10^6 CFU/ml using 0.85% sodium chloride solution.
(§5) The test substances are pre-pipetted into microtitre plates in amounts of 8 μl per well.
(§6) Pre-diluted test organism suspensions are diluted 1:100 in CASO broth.
(§7) The test batches are incubated for 48 hours at 37° C.
(§8) After incubation, the growth is determined on the basis of the turbidity of the test batches (optical density) at 620 nm in a microplate reader.
(§9) The minimum inhibitory concentration (MIC value) is the concentration of substance at which there is found (compared to the growth of the control) an appreciable inhibition of growth (≦20% growth) of the test organisms.
(§10) One microtitre plate is used for each test organism and substance concentration.
(§11) All the substances are tested in duplicate.

Structure (SMILES)	MIC [µg/mL]
CCCCCCCCOc1ccc(CN2CCOCC2)cc1OC [Compound of formula (40)]	> 120
CCCCCCOc1ccc(CN(C)C)cc1OCCCCCC [Compound of formula (100)]	7.5
CCCCCCOc1ccc(CN2CCN(c3cccc(OC)c3)CC2)cc1OC [Compound of formula (38)]	> 120
CCCCCCOc1ccc(CN(CC)CC)cc1OCCCCCC [Compound of formula (93)]	120
CCCCCCOc1ccc(CN2CCCC2)cc1OCCCCCC [Compound of formula (98)]	7.5
CCCCCCCCCCCCOc1ccc(CN(C)CCCCCC)cc1 [Compound of formula (80)]	> 120
CCCCCCCCCCCCOc1ccc(CN2CCCCC2)cc1OC [Compound of formula (3)]	> 120
CCCCCCCCOc1ccc(CN(C)CCc2ccccn2)cc1OC [Compound of formula (39)]	> 120
CCCCCCCCCCCCOc1ccc(CN2CCN(C(C)=O)CC2)cc1OC [Compound of formula (14)]	> 120
CCCOc1ccc(CN2CCCCCC2)cc1OC [Compound of formula (58)]	> 120
CCCCCCOc1ccc(CN2CCN(C(C)=O)CC2)cc1OCCCCCC [Compound of formula (94)]	> 120
CCCCCCOc1ccc(CN(C)CCCCCC)cc1OC [Compound of formula (32)]	7.5
CCCCCCCCOc1ccc(CN2CCCC2)cc1OC [Compound of formula (50)]	60
CCCCCCOc1ccc(CN2CCCCCC2)cc1OCCCCCC [Compound of formula (90)]	> 120
CCCCCCOc1ccc(CN2CCCCC2)cc1OCCCCCC [Compound of formula (102)]	> 120
CCCCCCOc1ccc(CN2CCNCC2)cc1OCCCCCC [Compound of formula (101)]	> 120
CCCCCCCCCCCCOc1ccc(CN(C)CCc2ccccn2)cc1OC [Compound of formula (7)]	> 120
CCCCCCOc1ccc(CN2CCN(CC)CC2)cc1OCCCCCC [Compound of formula (97)]	120
CCCCCCCCCCCCOc1ccc(CN(C(C)C)C(C)C)cc1 [Compound of formula (75)]	> 120
CCCCCCCCOc1ccc(CN2CCCCC2)cc1OC [Compound of formula (54)]	30
CCCCCCCCCCCCN(C)Cc1ccc(OCCC)c(OC)c1 [Compound of formula (67)]	> 120
CCCCCCCCOc1ccc(CN(C(C)C)C(C)C)cc1OC [Compound of formula (43)]	> 120
CCCCCCCCCCCCOc1ccc(CN(C)CCCCCCCCCCCC)cc1OC [Compound of formula (19)]	> 120
CCCCCCOc1ccc(CN2CCOCC2)cc1OC [Compound of formula (24)]	> 120
CCCCCCCCCCCCOc1ccc(CN(C)C)cc1OC [Compound of formula (20)]	15
CCCCCCCCCCCCOc1ccc(CN(C(C)C)C(C)C)cc1OC [Compound of formula (11)]	> 120
CCCCCCCCOc1ccc(CN2CCCCCC2)cc1OC [Compound of formula (42)]	15
CCCCCCCCOc1ccc(CN2CCN(C)CC2)cc1OC [Compound of formula (44)]	120

same assay, conditions: Escherichia coli, NCTC8196, 48 h, read-out: MIC [μg/ml] EC

Structure (SMILES)	MIC [µg/mL]
CCCOc1ccc(CN2CCN(CC)CC2)cc1OC [Compound of formula (65)]	> 120
CCCOc1ccc(CN2CCN(C)CC2)cc1OC [Compound of formula (60)]	> 120
CCCCCCOc1ccc(CN2CCNCC2)cc1OC [Compound of formula (37)]	> 120

system: Staphylococcus hominis DSM 20328; experiment: Determination of the Minimum Inhibitory Concentration (MIC value) in microtitre plates, Staphylococcus hominis; format: cell-based; details: Staphylococcus hominis, DSM20328, 48 h, Staphylococcus hominis DSM 20328; CASO broth, 48 hours at 37° C.; MIC = ≦20% growth (optical density at 620 nm); read-out: MIC [μg/ml] SH
Description: as §1
Casein-soybean flour-peptone broth for preparation of pre-cultures of test bacteria and yeast.
Staphylococcus hominis DSM 20328 […]
as §2, §3, §4, §5, §6, §7, §8, §9, §10, §11

Structure (SMILES)	MIC [µg/mL]
CCCCCCCCOc1ccc(CN2CCOCC2)cc1OC [Compound of formula (40)]	> 120
CCCCCCOc1ccc(CN(C)C)cc1OCCCCCC [Compound of formula (100)]	7.5
CCCCCCOc1ccc(CN2CCN(c3cccc(OC)c3)CC2)cc1OC [Compound of formula (38)]	> 120
CCCCCCOc1ccc(CN(CC)CC)cc1OCCCCCC [Compound of formula (93)]	7.5
CCCCCCOc1ccc(CN2CCCC2)cc1OCCCCCC [Compound of formula (98)]	3.75
CCCCCCCCCCCCOc1ccc(CN(C)CCCCCC)cc1 [Compound of formula (80)]	60
CCCCCCCCCCCCOc1ccc(CN2CCCCC2)cc1OC [Compound of formula (3)]	3.75
CCCCCCCCOc1ccc(CN(C)CCc2ccccn2)cc1OC [Compound of formula (39)]	120
CCCCCCCCCCCCOc1ccc(CN2CCN(C(C)=O)CC2)cc1OC [Compound of formula (14)]	> 120
CCCOc1ccc(CN2CCCCCC2)cc1OC [Compound of formula (58)]	120
CCCCCCOc1ccc(CN2CCN(C(C)=O)CC2)cc1OCCCCCC [Compound of formula (94)]	> 120
CCCCCCOc1ccc(CN(C)CCCCCC)cc1OC [Compound of formula (32)]	60
CCCCCCCCOc1ccc(CN2CCCC2)cc1OC [Compound of formula (50)]	60
CCCCCCOc1ccc(CN2CCCCCC2)cc1OCCCCCC [Compound of formula (90)]	7.5
CCCCCCOc1ccc(CN2CCCCC2)cc1OCCCCCC [Compound of formula (102)]	7.5
CCCCCCOc1ccc(CN2CCNCC2)cc1OCCCCCC [Compound of formula (101)]	> 120
CCCCCCCCCCCCOc1ccc(CN(C)CCc2ccccn2)cc1OC [Compound of formula (7)]	60
CCCCCCOc1ccc(CN2CCN(CC)CC2)cc1OCCCCCC [Compound of formula (97)]	30
CCCCCCCCCCCCOc1ccc(CN(C(C)C)C(C)C)cc1 [Compound of formula (75)]	> 120
CCCCCCCCOc1ccc(CN2CCCCC2)cc1OC [Compound of formula (54)]	60
CCCCCCCCCCCCN(C)Cc1ccc(OCCC)c(OC)c1 [Compound of formula (67)]	60
CCCCCCCCOc1ccc(CN(C(C)C)C(C)C)cc1OC [Compound of formula (43)]	> 120
CCCCCCCCCCCCOc1ccc(CN(C)CCCCCCCCCCCC)cc1OC [Compound of formula (19)]	> 120
CCCCCCOc1ccc(CN2CCOCC2)cc1OC [Compound of formula (24)]	> 120
CCCCCCCCCCCCOc1ccc(CN(C)C)cc1OC [Compound of formula (20)]	7.5
CCCCCCCCCCCCOc1ccc(CN(C(C)C)C(C)C)cc1OC [Compound of formula (11)]	> 120
CCCCCCCCOc1ccc(CN2CCCCCC2)cc1OC [Compound of formula (42)]	15
CCCCCCCCOc1ccc(CN2CCN(C)CC2)cc1OC [Compound of formula (44)]	120

same assay, conditions: Staphylococcus hominis, DSM20328, 48 h, read-out: MIC [μg/ml] SH

Structure (SMILES)	MIC [µg/mL]
CCCOc1ccc(CN2CCN(CC)CC2)cc1OC [Compound of formula (65)]	> 120
CCCOc1ccc(CN2CCN(C)CC2)cc1OC [Compound of formula (60)]	> 120
CCCCCCOc1ccc(CN2CCNCC2)cc1OC [Compound of formula (37)]	> 120
